# Data reported in PMC9596378, “Discovery and molecular basis of subtype-selective cyclophilin inhibitors” (Nature Chemical Biology, 2022).
# Target: CypD (Homo sapiens, UniProt P30405)
# Assay: Chymotrypsin coupled prolyl-isomerase assay
# Details: not given
# Experimental: Five microliters of compound pre-dissolved in 5% DMSO/assay buffer was then added to appropriate wells and incubated at 2–3 °C for 5 min. Five microliters of 0.5 mM α-chymotrypsin from bovine pancreas (Type II, lyophilized powder, Millipore-Sigma) in 20% 1 mM HCl/Assay Buffer was then added to each well and incubated at 2–3 °C for 5 min. The plate was then quickly transferred to a FLIPR Tetra High-Throughput Cellular Screening System (Molecular Devices). Using the internal liquid handling system of the FLIPR, 1 µL 0.5 mM Suc-AAPF-AMC (Chymotrypsin Substrate II, Millipore-Sigma) dissolved in 0.55 M LiCl/2,2,2-trifluoroethanol was added to each well, which was then mixed for 5 s, followed by immediate fluorescence measurements every 1 s for 330 s using a 360–380 nm excitation LED module and a 400–460 nm emission filter. […] Raw fluorescence data was analyzed by non-linear regression analysis with Prism v.9 by fitting one-phase association curves to each well. […] Rate constants calculated for each well (s^−1) were then normalized to substrate only (no prolyl-isomerase) and enzyme + substrate only controls.
# CypD, sequence (P30405 45-207): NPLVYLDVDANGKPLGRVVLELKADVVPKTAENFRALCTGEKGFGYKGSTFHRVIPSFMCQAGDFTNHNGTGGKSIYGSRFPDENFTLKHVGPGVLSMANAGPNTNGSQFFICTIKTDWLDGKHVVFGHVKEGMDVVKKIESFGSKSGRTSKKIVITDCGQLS
IC50,Compound,CypD prolyl-isomerase inhibition (in words)
> 100 µM,NCCOCCNC(=O)C1CCNC(=O)C=CC(=O)N2CCCC(C2)C(=O)NC(Cc2ccco2)C(=O)NCc2ccccc2C(=O)N1 (centres unmarked) [Compound A1],
> 100 µM,NCCOCCNC(=O)C1CCNC(=O)C=CC(=O)N2CCCC(C2)C(=O)NC(Cc2ccco2)C(=O)Nc2ccccc2CC(=O)N1 (centres unmarked) [Compound A2],
> 100 µM,NCCOCCNC(=O)C1CCNC(=O)C=CC(=O)N2CCCC(C2)C(=O)NC(Cc2ccco2)C(=O)NC2C=CC(C2)C(=O)N1 (centres unmarked) [Compound A4],
> 100 µM,NCCOCCNC(=O)C1CCNC(=O)C=CC(=O)N2CCCC(C2)C(=O)NC(Cc2ccco2)C(=O)Nc2ccccc2C(=O)N1 (centres unmarked) [Compound A6],
> 100 µM,NCCOCCNC(=O)C1CCNC(=O)C=CC(=O)N2CCCC(C2)C(=O)NC(Cc2ccco2)C(=O)NCc2ccccc2CC(=O)N1 (centres unmarked) [Compound A7],
> 100 µM,CC1NC(=O)C2CCCN(C2)C(=O)C=CC(=O)NCCC(C(=O)NCCOCCN)NC(=O)Cc2ccccc2CNC1=O (centres unmarked) [Compound A8],
17 ± 6 µM,NCCOCCNC(=O)C1CCNC(=O)C=CC(=O)N2CCCC(C2)C(=O)NC(Cc2ccccc2)C(=O)NCc2ccccc2CC(=O)N1 (centres unmarked) [Compound A9],
> 100 µM,CC(C)CC1NC(=O)C2CCCN(C2)C(=O)C=CC(=O)NCCC(C(=O)NCCOCCN)NC(=O)Cc2ccccc2CNC1=O (centres unmarked) [Compound A10],
17 ± 4 µM,NCCOCCNC(=O)C1CCNC(=O)C=CC(=O)N2CCCC(C2)C(=O)NC(CC=Cc2ccccc2)C(=O)NCc2ccccc2CC(=O)N1 (centres unmarked) [Compound A11],
> 100 µM,NCCOCCNC(=O)C1CCNC(=O)C=CC(=O)N2CCCC(C2)C(=O)NC(CC2CCCCC2)C(=O)NCc2ccccc2CC(=O)N1 (centres unmarked) [Compound A12],
18 ± 3 µM,NCCOCCNC(=O)C1CCNC(=O)C=CC(=O)N2CCCC(C2)C(=O)NC(Cc2ccc(-c3ccccc3)cc2)C(=O)NCc2ccccc2CC(=O)N1 (centres unmarked) [Compound A15],
> 100 µM,NCCOCCNC(=O)C1CCNC(=O)C=CC(=O)N2CCCC(C2)C(=O)NC(CCc2ccccc2)C(=O)NCc2ccccc2CC(=O)N1 (centres unmarked) [Compound A16],
14 ± 3 µM,NCCOCCNC(=O)C1CCNC(=O)C=CC(=O)N2CCCC(C2)C(=O)NC(Cc2cccs2)C(=O)NCc2ccccc2CC(=O)N1 (centres unmarked) [Compound A17],
22 ± 3 µM,Cc1cccc(CC2NC(=O)C3CCCN(C3)C(=O)C=CC(=O)NCCC(C(=O)NCCOCCN)NC(=O)Cc3ccccc3CNC2=O)c1 (centres unmarked) [Compound A19],
10 ± 2 µM,CC(C)(C)c1ccc(CC2NC(=O)C3CCCN(C3)C(=O)C=CC(=O)NCCC(C(=O)NCCOCCN)NC(=O)Cc3ccccc3CNC2=O)cc1 (centres unmarked) [Compound A20],
> 100 µM,NCCOCCNC(=O)C1CCNC(=O)C=CC(=O)N2CCCC(C2)C(=O)NC(Cc2ccco2)C(=O)NCc2ccccc2CC(=O)N1 (centres unmarked) [Compound A21],
> 100 µM,NCCOCCNC(=O)C1CCNC(=O)C=CC(=O)N2CCCCC2C(=O)NC(Cc2ccco2)C(=O)NCc2ccccc2CC(=O)N1 (centres unmarked) [Compound A23],
> 100 µM,NCCOCCNC(=O)C1CCNC(=O)C=CC(=O)N2CCC(C2)C(=O)NC(Cc2ccco2)C(=O)NCc2ccccc2CC(=O)N1 (centres unmarked) [Compound A24],
10 ± 2 µM,NCCOCCNC(=O)C1CCNC(=O)C=CC(=O)NC2CCCC(C2)C(=O)NC(Cc2ccco2)C(=O)NCc2ccccc2CC(=O)N1 (centres unmarked) [Compound A28],
6.2 ± 0.9 µM,NCCOCCNC(=O)C1CCNC(=O)C=CC(=O)NC2CCCC(C2)C(=O)NC(Cc2ccco2)C(=O)NCc2ccccc2CC(=O)N1 (centres unmarked) [Compound A29],
> 100 µM,NCCOCCNC(=O)C1CCNC(=O)CCC(=O)N2CCCC(C2)C(=O)NC(Cc2ccco2)C(=O)NCc2ccccc2CC(=O)N1 (centres unmarked) [Compound A30],

# The next lines start with the compound.
Compound,IC50,CypD prolyl-isomerase inhibition (in words)
CC(C)(C)CC1NC(=O)C(CC2CCCCC2)NC(=O)C2CCCN2C(=O)C=CC(=O)NCc2cccc(c2)CC(C(=O)NCCOCCN)NC1=O (centres unmarked) [HJJJt/c],,no prolyl-isomerase inhibition
CC(C)(C)CC1NC(=O)C(Cc2ccco2)NC(=O)C2CCCN2C(=O)C=CC(=O)NCc2cccc(c2)CC(C(=O)NCCOCCN)NC1=O (centres unmarked) [HOJJt/c],,no prolyl-isomerase inhibition
NC(=O)C1CCNC(=O)C=CC(=O)N2CCCC(CC(=O)NC(Cc3ccco3)C(=O)NCc3ccccc3CC(=O)N1)C2 (centres unmarked) [JOBBc-A],> 100 µM,
NCCOCCNC(=O)C1CCNC(=O)C=CC(=O)N2CCCC(CC(=O)NC(Cc3ccco3)C(=O)NCc3ccccc3CC(=O)N1)C2 (centres unmarked) [JOBBt],49 ± 6 µM,
NCCOCCNC(=O)C1CCNC(=O)C=CC(=O)N2CCCC2CC(=O)NC(Cc2ccco2)C(=O)NCc2ccccc2CC(=O)N1 (centres unmarked) [JOCBt],> 100 µM,
NC(=O)C1CCNC(=O)C=CC(=O)NC2CCC(CC2)C(=O)NC(Cc2ccco2)C(=O)NCc2ccccc2CC(=O)N1 (centres unmarked) [JOGBt-A],> 100 µM,
NCCOCCNC(=O)C1CNC(=O)C=CC(=O)N2CCCC(C2)C(=O)NC(Cc2ccco2)C(=O)NCc2ccccc2CC(=O)N1 (centres unmarked) [JOMAt],> 100 µM,
NCCOCCNC(=O)C1CCNC(=O)C=CC(=O)N2CCCC(C2)C(=O)NC(Cc2ccco2)C(=O)NCc2ccccc2CC(=O)N1 (centres unmarked) [JOMBc],> 100 µM,
NC(=O)C1CCNC(=O)C=CC(=O)N2CCCC(C2)C(=O)NC(Cc2ccco2)C(=O)NCc2ccccc2CC(=O)N1 (centres unmarked) [JOMBt-A],18 ± 3 µM,
NCCCOCCOCCOCCCNC(=O)C1CCNC(=O)C=CC(=O)N2CCCC(C2)C(=O)NC(Cc2ccco2)C(=O)NCc2ccccc2CC(=O)N1 (centres unmarked) [JOMBt-D],5.2 ± 0.3 µM,
NCCOCCNC(=O)C1CCCNC(=O)C=CC(=O)N2CCCC(C2)C(=O)NC(Cc2ccco2)C(=O)NCc2ccccc2CC(=O)N1 (centres unmarked) [JOMCt],> 100 µM,
NCCOCCNC(=O)C1CCNC(=O)Cc2ccccc2CNC(=O)C(Cc2ccco2)NC(=O)C2CCCN(C2)C(=O)C=CC(=O)N1 (centres unmarked) [JOMFc],> 100 µM,
NCCOCCNC(=O)C1CCNC(=O)Cc2ccccc2CNC(=O)C(Cc2ccco2)NC(=O)C2CCCN(C2)C(=O)C=CC(=O)N1 (centres unmarked) [JOMFt],~90 µM,

# Same assay, conditions: IC50 CypD cis, cis olefin isomer
row,Compound,IC50
1,CC(C)(C)CC1NC(=O)C(CC2CCCCC2)NC(=O)C2CCCN2C(=O)C=CC(=O)NCc2cccc(c2)CC(C(=O)NCCOCCN)NC1=O (centres unmarked) [HJJJt/c],> 100 µM
2,CC(C)(C)CC1NC(=O)C(Cc2ccco2)NC(=O)C2CCCN2C(=O)C=CC(=O)NCc2cccc(c2)CC(C(=O)NCCOCCN)NC1=O (centres unmarked) [HOJJt/c],> 100 µM
3,NCCOCCNC(=O)C1CNC(=O)C=CC(=O)NC2CCC(CC2)C(=O)NC(Cc2ccco2)C(=O)NCc2ccccc2CC(=O)N1 (centres unmarked) [JOGA],> 100 µM
4,NCCOCCNC(=O)C1CCNC(=O)C=CC(=O)N2CCCC(C2)C(=O)NC(Cc2ccco2)C(=O)NCc2ccccc2CC(=O)N1 (centres unmarked) [JOMB],> 100 µM

# Same assay, conditions: IC50 CypD trans, trans olefin isomer
row,Compound,IC50
1,CC(C)(C)CC1NC(=O)C(CC2CCCCC2)NC(=O)C2CCCN2C(=O)C=CC(=O)NCc2cccc(c2)CC(C(=O)NCCOCCN)NC1=O (centres unmarked) [HJJJt/c],> 100 µM
2,CC(C)(C)CC1NC(=O)C(Cc2ccco2)NC(=O)C2CCCN2C(=O)C=CC(=O)NCc2cccc(c2)CC(C(=O)NCCOCCN)NC1=O (centres unmarked) [HOJJt/c],> 100 µM
3,NCCOCCNC(=O)C1CNC(=O)C=CC(=O)NC2CCC(CC2)C(=O)NC(Cc2ccco2)C(=O)NCc2ccccc2CC(=O)N1 (centres unmarked) [JOGA],> 100 µM
